Series [1] is described as follows: physchem. The conditions noted are these: water.
The nature of series [2]: Paclitaxel aqueous solubility in the presence of hydrotropic agents, polymers and hydrogels (HPLC). The following applies: for hydrotropic effect for paclitaxel, in words: agent concentration as printed in parentheses in the text. The protocol:
The mobile phase consists of acetonitrile-water (45:55 v/v) with a flow rate of 1.0 ml/min.
To the filtered solution is added ethylene glycol dimethacrylate, a crosslinker at a concentration of 6 mol % to the monomer.

Series [3] can be described thus: Water solubility (maximum solubility) of hydrotropic agents. The following applies: for solubility: water.
The conditions of series [4]: log (CO/CW), octanol and water; cited from earlier work.
The conditions of series [5]: at 37° C.; cited from earlier work.

This is an account of results in patent US20030031715A1, “Pharmaceutical applications of hydrotropic agents, polymers thereof, and hydrogels thereof” (priority 2000, published 2003).

≈ marks a conversion by molar mass, not a printed value. Read-outs that look alike come from different tables or passages of the source.

A word on the solubility: it is the dissolved amount per volume that the medium holds. `NC(=O)c1cccc(C(N)=O)n1` [2,6-pyridinedicarboxamide]: the solubility in series [1] turned out to be 2.5 mM (≈ 413 µg/mL). Besides, the “PTX Solubility” value in series [2] was 0.000 mg/mL. For `CCN(CC)C(=O)c1cccnc1O` [2-hydroxy-N,N-diethylnicotinamide] the same measures were 200 mM (≈ 38800 µg/mL) and 0.000 mg/mL.

Consider `C=C(C)C(=O)OCCOP(=O)([O-])OCC[N+](C)(C)C` [2-methacryloyloxyethyl phosphorylcholine], for which, in series [2], the “PTX Solubility” value came to 3.199 mg/mL. For `NC(=O)c1ccncc1C(N)=O` [3,4-pyridinedicarboxamide], the concentration in solution in series [1] (solubility) was 25 mM (≈ 4130 µg/mL). The “PTX Solubility” value in series [2] stood at 0.000 mg/mL. In series [1], `Nc1ccc(C(=O)O)c(O)c1` [4-aminosalicylic acid] yielded a solubility of 5 mM (≈ 766 µg/mL).

In turn, `CCN(CC)C(=O)c1ccc(=O)[nH]c1` [6-Hydroxy-N,N-diethylnicotinamide] registered a solubility in series [3] of 2000 mM (≈ 388000 µg/mL).

For `CN(C)CCCN1c2ccccc2Sc2ccc(Cl)cc21` [Chlorpromazine], the “Partition Coefficient” value in series [4] is listed as 3.17. Further, in series [5], the “Water Solubility (μM)” value was 94.1 µM and the “Water Solubility (μg/ml)” value was 30.0 µg/mL. Turning to `C(=C\c1ccccc1)/CN1CCN(C(c2ccccc2)c2ccccc2)CC1` [Cinnarizine], in series [5], the “Water Solubility (μM)” value was less than 1.0 µM and the “Water Solubility (μg/ml)” value was less than 0.4 µg/mL. On to `C[C@@H]1C[C@H]2[C@@H]3CCC4=CC(=O)C=C[C@]4(C)[C@@]3(F)[C@@H](O)C[C@]2(C)[C@@]1(O)C(=O)CO` [Dexamethasone], for which, in series [4], the “Partition Coefficient” value was 1.95. Further, in series [5], the “Water Solubility (μM)” value is 25.5 µM and the “Water Solubility (μg/ml)” value is 10.0 µg/mL. With `O=C(O)Cc1ccccc1Nc1c(Cl)cccc1Cl` [Diclofenac], in series [4], the “Partition Coefficient” value was 1.12. In addition, in series [5], the “Water Solubility (μM)” value was 10.1 µM and the “Water Solubility (μg/ml)” value is 3.0 µg/mL. For `CC/C(=C(/CC)c1ccc(O)cc1)c1ccc(O)cc1` [Diethylstilbestrol], in series [4], the “Partition Coefficient” value is 4.50. Also, in series [5], the “Water Solubility (μM)” value is 7.5 µM and the “Water Solubility (μg/ml)” value is 2.0 µg/mL.

As for `C[C@H]1O[C@@H](O[C@H]2[C@@H](O)C[C@H](O[C@H]3[C@@H](O)C[C@H](O[C@H]4CC[C@@]5(C)[C@H](CC[C@@H]6[C@@H]5C[C@@H](O)[C@]5(C)[C@@H](C7=CC(=O)OC7)CC[C@]65O)C4)O[C@@H]3C)O[C@@H]2C)C[C@H](O)[C@@H]1O` [Digoxin], the “Partition Coefficient” value in series [4] is given as 1.26. In series [5], the “Water Solubility (μM)” value is 38.4 µM and the “Water Solubility (μg/ml)” value was 30.0 µg/mL. Regarding `C[C@]12CC[C@@H]3c4ccc(O)cc4CC[C@H]3[C@@H]1CCC2=O` [Estrone], in series [4], the “Partition Coefficient” value is 3.69. Consider `Fc1ccc(C(c2ccc(F)cc2)N2CCN(C/C=C/c3ccccc3)CC2)cc1` [Flunarizine], for which the “Partition Coefficient” value in series [4] was 4.70. In series [5], the “Water Solubility (μM)” value is 1.0 µM and the “Water Solubility (μg/ml)” value is 0.4 µg/mL.

With `C[C@]12CCC(=O)C=C1CC[C@@H]1[C@@H]2[C@@H](O)C[C@@]2(C)[C@H]1CC[C@]2(O)C(=O)CO` [Hydrocortisone], the “Partition Coefficient” value in series [4] is 1.52. Take `COc1ccc2c(c1)c(CC(=O)O)c(C)n2C(=O)c1ccc(Cl)cc1` [Indomethacin]: the “Partition Coefficient” value in series [4] is reported as 4.27. In series [5], the “Water Solubility (μM)” value is 55.9 µM and the “Water Solubility (μg/ml)” value was 20.0 µg/mL. For `CCC(C)n1ncn(-c2ccc(N3CCN(c4ccc(OCC5COC(Cn6cncn6)(c6ccc(Cl)cc6Cl)O5)cc4)CC3)cc2)c1=O` (centres unmarked) [Itraconazole], the “Partition Coefficient” value in series [4] is 5.66. In series [5], the “Water Solubility (μM)” value was 2.8 µM and the “Water Solubility (μg/ml)” value is 2.0 µg/mL. With `COC(=O)Nc1nc2ccc(C(=O)c3ccccc3)cc2[nH]1` [Mebendazole], the “Partition Coefficient” value in series [4] is on record as 2.83. With `CCN(CC)C(=O)c1cccnc1` [N,N-diethylnicotinamide], the “hydrotropic property relative to N,N-dimethylnicotinamide” value in series [2] was greater than 20 times. Turning to `C=CC(=O)NC(C)C` [N-isopropylacrylamide], the “hydrotropic effect for paclitaxel, in words” value in series [2] was “very small hydrotropic effects”. `CNC(C)=O` [N-methylacetamide]: the “hydrotropic effect for paclitaxel, in words” value in series [2] is listed as “very small hydrotropic effects”. In addition, the “PTX Solubility” value in series [2] (hydrotropic agent […]) was 0.012 mg/mL.

`COC(=O)C1=C(C)NC(C)=C(C(=O)OCCN(C)Cc2ccccc2)C1c1cccc([N+](=O)[O-])c1` (centres unmarked) [Nicardipine]: the “Partition Coefficient” value in series [4] is listed as 3.62. For the same molecule, in series [5], the “Water Solubility (μM)” value was 7.1 µM and the “Water Solubility (μg/ml)” value is 3.4 µg/mL. As for `COC(=O)C1=C(C)NC(C)=C(C(=O)OC)C1c1ccccc1[N+](=O)[O-]` [Nifedifine], the “Partition Coefficient” value in series [4] is 2.20. In series [5], the “Water Solubility (μM)” value was 28.9 µM and the “Water Solubility (μg/ml)” value was 10.0 µg/mL.

Take `C#C[C@]1(O)CC[C@H]2[C@@H]3CCC4=CC(=O)CC[C@@H]4[C@H]3CC[C@@]21C` [Norethindrone]: in series [4], the “Partition Coefficient” value is on record as 3.15.

For `CCOc1ccc(NC(C)=O)cc1` [Phenacetin], the “Partition Coefficient” value in series [4] is reported as 1.55. `O=C1NC(=O)C(c2ccccc2)(c2ccccc2)N1` [Phenytoin]: the “Partition Coefficient” value in series [4] is listed as 2.47. Besides, in series [5], the “Water Solubility (μM)” value was 79.3 µM and the “Water Solubility (μg/ml)” value is 20.0 µg/mL. For the molecule `O=c1[nH]c2ccccc2n1C1CCN(CCCC(c2ccc(F)cc2)c2ccc(F)cc2)CC1` [Pimozide], the “Partition Coefficient” value in series [4] is given as 4.50. Moreover, in series [5], the “Water Solubility (μM)” value was 2.2 µM and the “Water Solubility (μg/ml)” value was 1.0 µg/mL. Turning to `CO[C@H]1C[C@@H]2CC[C@@H](C)[C@@](O)(O2)C(=O)C(=O)N2CCCC[C@H]2C(=O)O[C@H]([C@H](C)C[C@@H]2CC[C@@H](O)[C@H](OC)C2)CC(=O)[C@H](C)/C=C(\C)[C@@H](O)[C@@H](OC)C(=O)[C@H](C)C[C@H](C)/C=C/C=C/C=C/1C` [Rapamycin], in series [5], the “Water Solubility (μM)” value is 3.3 µM and the “Water Solubility (μg/ml)” value is 3.0 µg/mL.

Consider `COC(=O)[C@H]1[C@H]2C[C@@H]3c4[nH]c5cc(OC)ccc5c4CCN3C[C@H]2C[C@@H](OC(=O)c2cc(OC)c(OC)c(OC)c2)[C@@H]1OC` [Reserpine], for which the “Partition Coefficient” value in series [4] is 3.73. Also, in series [5], the “Water Solubility (μM)” value is 1.6 µM and the “Water Solubility (μg/ml)” value was 1.0 µg/mL. In turn, `Cc1ccc(S(=O)(=O)[O-])cc1.[Na+]` [Sodium p-toluenesulfonate] came in with a solubility in series [3] of 2500 mM. On the same count and under the same terms, the same measure for `Cc1ccc(S(=O)(=O)[O-])c(C)c1.[Na+]` [Sodium xylenesulfonate]: 2500 mM. On to `CC(=O)S[C@@H]1CC2=CC(=O)CC[C@]2(C)[C@H]2CC[C@@]3(C)[C@@H](CC[C@@]34CCC(=O)O4)[C@H]12` [Spironolactone], for which, in series [4], the “Partition Coefficient” value is 2.78. Besides, in series [5], the “Water Solubility (μM)” value was 72.0 µM and the “Water Solubility (μg/ml)” value is 30.0 µg/mL. Take `CC(C)(C)c1ccc(C(O)CCCN2CCC(C(O)(c3ccccc3)c3ccccc3)CC2)cc1` (centres unmarked) [Terfenadine]: the “Partition Coefficient” value in series [4] was 4.05. Moreover, in series [5], the “Water Solubility (μM)” value is 152.8 µM and the “Water Solubility (μg/ml)” value was 72.1 µg/mL.

Turning to `O=C1CCC(N2C(=O)c3ccccc3C2=O)C(=O)N1` (centres unmarked) [Thalidomide], the “Partition Coefficient” value in series [4] is recorded as 0.64. Further, in series [5], the “Water Solubility (μM)” value was 77.5 µM and the “Water Solubility (μg/ml)” value was 20.0 µg/mL. `CCCCNC(=O)NS(=O)(=O)c1ccc(C)cc1` [Tolbutamide]: in series [5], the “Water Solubility (μM)” value was 202.6 µM and the “Water Solubility (μg/ml)” value was 54.8 µg/mL. Consider `CN1CCN(CCCN2c3ccccc3Sc3ccc(C(F)(F)F)cc32)CC1` [Trifluoperazine], for which the “Partition Coefficient” value in series [4] is 4.15. In turn, `Nc1ncnc2c1ncn2[C@@H]1O[C@H](CO)[C@@H](O)[C@H]1O` [adenosine] had a solubility in series [1] of 5 mM (≈ 1340 µg/mL). In series [1], `CC(C)N(C(=O)c1cccnc1)C(C)C` [diisopropylnicotinamide, N,N-diisopropylnicotinamide] came in with a solubility of 50 mM (≈ 10300 µg/mL). Still for that read-out and setting: the same measure for `CC(=O)OCC(COC(C)=O)OC(C)=O` [glyceryl triacetate]: 200 mM. Regarding `O=C1NS(=O)(=O)c2ccccc21` [o-benzoic acid sulfimide], in series [3] (in water), the “maximum solubility (water solubility) of the hydrotropic agent” value turned out to be 0.01 M.

As to `NC(N)=O` [urea], the “PTX Solubility” value in series [2] amounted to 0.001 mg/mL. Still for that read-out and setting: the same measure for Pluronic F127: 0.066 mg/mL; for Pluronic P85: 0.118 mg/mL; for “Poly(2-methacryloyloxyethyl phosphorylcholine-co-N-isopropylacrylamide)”: 0.042 mg/mL.

Regarding “Poly(6-allyloxy-N,N-diethylnicotinamide)”, the “PTX Solubility” value in series [2] amounted to 0.149 mg/mL. For Poly(N-allylnicotinamide), the “PTX Solubility” value in series [2] amounted to 0.253 mg/mL.

Regarding Poly(Sodium 4-acrylamidosalicylate), the “PTX Solubility” value in series [2] is 0.028 mg/mL. Poly(Sodium 5-acrylamidosalicylate): the “PTX Solubility” value in series [2] was found to be 0.000 mg/mL. The same measure, in the same setting: the same measure for Poly(sodium 6-allyloxynicotinic acid): 0.003 mg/mL; for Polyvinylpyrrolidone K-25: 0.003 mg/mL; for Polyvinylpyrrolidone K-30: 0.001 mg/mL. The same measure, in the same setting: the same measure for Polyvinylpyrrolidone K-90: 0.002 mg/mL; for Polyvinylpyrrolidone K- 17: 0.000 mg/mL.
